Converted amounts (≈) assume the structure as drawn.
Columns and labels:
Type in all cases: functional
Candida albicans = assay: Minimum inhibitory concentration against Candida albicans was determined
Enterococcus faecium [1] = assay: Minimum inhibitory concentration against Enterococcus faecium was determined; Range is […] ug/mL
Enterococcus faecalis [2] = assay: Minimum inhibitory concentration against Enterococcus faecalis was determined; Range is […] ug/mL
[3] = Minimum inhibitory concentration against Gram(-) sp. was determined; Range is […] ug/mL
Staphylococcus aureus [4] = assay: Minimum inhibitory concentration against Staphylococcus aureus (MRCNS) was determined
Staphylococcus aureus [5] = assay: Minimum inhibitory concentration against Staphylococcus aureus (MRSA) was determined; Range is 32-64 ug/mL
Staphylococcus aureus [6] = assay: Minimum inhibitory concentration against Staphylococcus aureus (MSCNS) was determined
Streptococcus [7] = assay: Minimum inhibitory concentration against Streptococcus was determined; […]
Staphylococcus aureus [8] = assay: Minimum inhibitory concentration against Staphylococcus aureus (MSSA) was determined; Range is 32-64 ug/mL
Enterococcus faecalis [9] = assay: Minimum inhibitory concentration against Enterococcus faecalis was determined; Range is 8-16 ug/mL
[10] = Minimum inhibitory concentration against Gram(-) sp. was determined
Staphylococcus aureus [11] = assay: Minimum inhibitory concentration against Staphylococcus aureus (MSCNS) was determined; Range is 1-8 ug/mL
Staphylococcus aureus [12] = assay: Minimum inhibitory concentration against Staphylococcus aureus (MRSA) was determined; Range is 4-8 ug/mL
Streptococcus [13] = assay: Minimum inhibitory concentration against Streptococcus was determined; Range is <=0.12-2 ug/mL
Staphylococcus aureus [14] = assay: Minimum inhibitory concentration against Staphylococcus aureus (MSSA) was determined; Range is 4-8 ug/mL
Enterococcus faecium [15] = assay: Minimum inhibitory concentration against Enterococcus faecium was determined; Range is 8-16 ug/mL

C[C@@H](c1ccccc1)[C@@H]1NC(=O)CNC(=O)[C@H](CO)NC(=O)[C@@H]([C@@H](O)[C@@H]2CN=C(N)N2[C@H]2O[C@H](O)[C@@H](O)[C@H](O)[C@@H]2O)NC(=O)[C@H]([C@@H](O)[C@@H]2CN=C(N)N2)NC(=O)[C@@H](Cc2ccc(O[C@H]3O[C@H](CO)[C@@H](O[C@H]4O[C@H](CO)[C@@H](O)[C@H](O)[C@@H]4OCc4ccc(OCc5ccccc5)cc4)[C@H](O)[C@@H]3O)cc2)NC1=O
MIC (Candida albicans): 128 µg/mL (≈ 86.6 µM)
MIC (Enterococcus faecium [1]): 16 µg/mL (≈ 10.8 µM)
MIC (Enterococcus faecalis [2]): 64 µg/mL (≈ 43.3 µM)
MIC [3]: > 128 µg/mL
MIC (Staphylococcus aureus [4]): 32 µg/mL (≈ 21.7 µM)
MIC (Staphylococcus aureus [5]): 32 µg/mL (≈ 21.7 µM)
MIC (Staphylococcus aureus [6]): 16 µg/mL (≈ 10.8 µM)
MIC (Streptococcus [7]): 2 µg/mL (≈ 1.35 µM)
MIC (Staphylococcus aureus [8]): 32 µg/mL (≈ 21.7 µM)

C[C@@H](c1ccccc1)[C@@H]1NC(=O)CNC(=O)[C@H](CO)NC(=O)[C@@H]([C@@H](O)[C@@H]2CN=C(N)N2[C@H]2O[C@H](O)[C@@H](O)[C@H](O)[C@@H]2O)NC(=O)[C@H]([C@@H](O)[C@@H]2CN=C(N)N2)NC(=O)[C@@H](Cc2ccc(O[C@H]3O[C@H](CO)[C@@H](O[C@H]4O[C@H](CO)[C@@H](O)[C@H](OCc5ccc(OCc6ccccc6)cc5)[C@@H]4O)[C@H](O)[C@@H]3O)cc2)NC1=O
MIC (Candida albicans): > 128 µg/mL
MIC (Enterococcus faecalis [9]): 8 µg/mL (≈ 5.41 µM)
MIC [10]: > 128 µg/mL
MIC (Staphylococcus aureus [4]): 4 µg/mL (≈ 2.71 µM)
MIC (Staphylococcus aureus [11]): 1 µg/mL (≈ 0.677 µM)
MIC (Staphylococcus aureus [12]): 4 µg/mL (≈ 2.71 µM)
MIC (Streptococcus [13]): ≤ 0.12 µg/mL
MIC (Staphylococcus aureus [14]): 4 µg/mL (≈ 2.71 µM)
MIC (Enterococcus faecium [15]): 8 µg/mL (≈ 5.41 µM)

Reference: ChEMBL document CHEMBL1136657, “Novel ether derivatives of mannopeptimycin glycopeptide antibiotic” (2003)
